Measured values: patent publication US6737383B1, “Herbicidal oxadiazolidines” (priority 1999, dated 2004)

Assays:
bedstraw = test: Test B pre/postemergence bedstraw; assay type: in vivo, Galium aparine; details: for Bedstraw plant response rating: scale of 0 to 10 where 0 is no effect and 10 is complete control
How it was run: (§1)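 Test chemicals in a non-phytotoxic solvent mixture with surfactant were sprayed preemergence onto planted seeds and postemergence onto plants 2 to 18 cm tall (1- to 4-leaf stage). After twelve to sixteen days in a greenhouse, injury was visually rated against untreated controls from 0 (no effect) to 10 (complete control).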

blackgrass = test: Test B pre/postemergence blackgrass; assay type: in vivo, Alopecurus myosuroides; details: for Blackgrass plant response rating: scale of 0 to 10 where 0 is no effect and 10 is complete control
How it was run: as §1

surinam grass = test: Test B pre/postemergence surinam grass; assay type: in vivo, Brachiaria decumbens; details: for B. signalgrass plant response rating: scale of 0 to 10 where 0 is no effect and 10 is complete control
How it was run: as §1

cocklebur = test: Test B pre/postemergence cocklebur; assay type: in vivo, Xanthium strumarium; details: for Cocklebur plant response rating: scale of 0 to 10 where 0 is no effect and 10 is complete control
How it was run: as §1

corn = test: Test B pre/postemergence corn; assay type: in vivo, Zea mays; details: for Corn plant response rating: scale of 0 to 10 where 0 is no effect and 10 is complete control
How it was run: as §1

crabgrass = test: Test B pre/postemergence crabgrass; assay type: in vivo, Digitaria sanguinalis; details: for Crabgrass plant response rating: scale of 0 to 10 where 0 is no effect and 10 is complete control
How it was run: as §1

giant foxtail = test: Test B pre/postemergence giant foxtail; assay type: in vivo, Setaria faberii; details: for Giant foxtail plant response rating: scale of 0 to 10 where 0 is no effect and 10 is complete control
How it was run: as §1

morningglory = test: Test B pre/postemergence morningglory; assay type: in vivo, Ipomoea hederacea; details: for Morningglory plant response rating: scale of 0 to 10 where 0 is no effect and 10 is complete control
How it was run: as §1

pigweed = test: Test B pre/postemergence pigweed; assay type: in vivo, Amaranthus retroflexus; details: for Redroot pigweed plant response rating: scale of 0 to 10 where 0 is no effect and 10 is complete control
How it was run: as §1

rape = test: Test B pre/postemergence rape; assay type: in vivo, Brassica napus; details: for Rape plant response rating: scale of 0 to 10 where 0 is no effect and 10 is complete control
How it was run: as §1

soybean = test: Test B pre/postemergence soybean; assay type: in vivo, Glycine max; details: for Soybean plant response rating: scale of 0 to 10 where 0 is no effect and 10 is complete control
How it was run: as §1

sugar beet = test: Test B pre/postemergence sugar beet; assay type: in vivo, Beta vulgaris; details: for Sugarbeets plant response rating: scale of 0 to 10 where 0 is no effect and 10 is complete control
How it was run: as §1

velvetleaf = test: Test B pre/postemergence velvetleaf; assay type: in vivo, Abutilon theophrasti; details: for Velvetleaf plant response rating: scale of 0 to 10 where 0 is no effect and 10 is complete control
How it was run: as §1

wheat = test: Test B pre/postemergence wheat; assay type: in vivo, Triticum aestivum; details: for Wheat plant response rating: scale of 0 to 10 where 0 is no effect and 10 is complete control
How it was run: as §1

wild oat = test: Test B pre/postemergence wild oat; assay type: in vivo, Avena fatua; details: for Wild oats plant response rating: scale of 0 to 10 where 0 is no effect and 10 is complete control
How it was run: as §1

purple nutsedge = test: Test B pre/postemergence purple nutsedge; assay type: in vivo, Cyperus rotundus; details: for Nutsedge plant response rating: scale of 0 to 10 where 0 is no effect and 10 is complete control
How it was run: as §1

[1] = Postemergence, Rate 125 g/ha, scale 0 to 10, 0 is no effect, 10 is complete control
[2] = Postemergence, Rate 250 g/ha, scale 0 to 10, 0 is no effect, 10 is complete control
[3] = Preemergence, Rate 62 g/ha, scale 0 to 10 (0 no effect, 10 complete control)
[4] = Rate 500 g/ha, Postemergence, scale 0 to 10, 0 no effect, 10 complete control

Compound: CC(C)N(C(=O)n1oc(=O)n(C2(C)CC2)c1=O)c1ccc(F)cc1F [Compound 363]
- Plant response rating, Bedstraw (bedstraw; [1]): 4
- Plant response rating, Bedstraw (bedstraw; [2]): 7
- Plant response rating, Bedstraw (bedstraw; [3]): 9
- Bedstraw plant response rating (0 to 10 scale) (bedstraw; Preemergence, Rate 125 g/ha): 9
- Bedstraw plant response rating (bedstraw; Preemergence, Rate 250 g/ha): 10
- Bedstraw plant response rating (bedstraw; Preemergence, Rate 500 g/ha): 10
- Bedstraw plant response rating (bedstraw; Rate 62 g/ha, Postemergence): 4
- Plant response rating, Bedstraw (bedstraw; [4]): 9
- Plant response rating, Blackgrass (blackgrass; [1]): 7
- Plant response rating, Blackgrass (blackgrass; [2]): 7
- Plant response rating, Blackgrass (blackgrass; [3]): 8
- Blackgrass plant response rating (0 to 10 scale) (blackgrass; Preemergence, Rate 125 g/ha): 10
- Blackgrass plant response rating (blackgrass; Preemergence, Rate 250 g/ha): 10
- Blackgrass plant response rating (blackgrass; Preemergence, Rate 500 g/ha): 10
- Blackgrass plant response rating (blackgrass; Rate 62 g/ha, Postemergence): 5
- Plant response rating, Blackgrass (blackgrass; [4]): 8
- Plant response rating, B. signalgrass (surinam grass; [1]): 0
- Plant response rating, B. signalgrass (surinam grass; [2]): 1
- Plant response rating, B. signalgrass (surinam grass; [3]): 3
- B. signalgrass plant response rating (0 to 10 scale, 0 is no effect, 10 is complete control) (surinam grass; Preemergence, Rate 125 g/ha): 3
- B. signalgrass plant response rating (surinam grass; Preemergence, Rate 250 g/ha): 5
- B. signalgrass plant response rating (surinam grass; Preemergence, Rate 500 g/ha): 6
- B. signalgrass plant response rating (surinam grass; Rate 62 g/ha, Postemergence): 0
- Plant response rating, B. signalgrass (surinam grass; [4]): 5
- Plant response rating, Cocklebur (cocklebur; [1]): 0
- Plant response rating, Cocklebur (cocklebur; [2]): 2
- Plant response rating, Cocklebur (cocklebur; [3]): 0
- Cocklebur plant response rating (0 to 10 scale) (cocklebur; Preemergence, Rate 125 g/ha): 0
- Cocklebur plant response rating (cocklebur; Preemergence, Rate 250 g/ha): 0
- Cocklebur plant response rating (cocklebur; Preemergence, Rate 500 g/ha): 0
- Cocklebur plant response rating (cocklebur; Rate 62 g/ha, Postemergence): 0
- Plant response rating, Cocklebur (cocklebur; [4]): 2
- Plant response rating, Corn (corn; [1]): 0
- Plant response rating, Corn (corn; [2]): 2
- Plant response rating, Corn (corn; [3]): 0
- Corn plant response rating (0 to 10 scale) (corn; Preemergence, Rate 125 g/ha): 0
- Corn plant response rating (corn; Preemergence, Rate 250 g/ha): 3
- Corn plant response rating (corn; Preemergence, Rate 500 g/ha): 7
- Corn plant response rating (corn; Rate 62 g/ha, Postemergence): 0
- Plant response rating, Corn (corn; [4]): 6
- Plant response rating, Crabgrass (crabgrass; [1]): 2
- Plant response rating, Crabgrass (crabgrass; [2]): 5
- Plant response rating, Crabgrass (crabgrass; [3]): 3
- Crabgrass plant response rating (0 to 10 scale) (crabgrass; Preemergence, Rate 125 g/ha): 7
- Crabgrass plant response rating (crabgrass; Preemergence, Rate 250 g/ha): 7
- Crabgrass plant response rating (crabgrass; Preemergence, Rate 500 g/ha): 9
- Crabgrass plant response rating (crabgrass; Rate 62 g/ha, Postemergence): 1
- Plant response rating, Crabgrass (crabgrass; [4]): 9
- Plant response rating, Giant foxtail (giant foxtail; [1]): 4
- Plant response rating, Giant foxtail (giant foxtail; [2]): 9
- Giant foxtail plant response rating (0 to 10 scale) (giant foxtail; Preemergence, Rate 125 g/ha): 10
- Giant foxtail plant response rating (giant foxtail; Preemergence, Rate 250 g/ha): 10
- Giant foxtail plant response rating (giant foxtail; Preemergence, Rate 500 g/ha): 10
- Giant foxtail plant response rating (giant foxtail; Rate 62 g/ha, Postemergence): 4
- Plant response rating, Giant foxtail (giant foxtail; [4]): 9
- Plant response rating, Morningglory (morningglory; [1]): 1
- Plant response rating, Morningglory (morningglory; [2]): 1
- Plant response rating, Morningglory (morningglory; [3]): 0
- Morningglory plant response rating (0 to 10 scale) (morningglory; Preemergence, Rate 125 g/ha): 0
- Morningglory plant response rating (morningglory; Preemergence, Rate 250 g/ha): 5
- Morningglory plant response rating (morningglory; Preemergence, Rate 500 g/ha): 6
- Morningglory plant response rating (morningglory; Rate 62 g/ha, Postemergence): 1
- Plant response rating, Morningglory (morningglory; [4]): 3
- Plant response rating, Redroot pigweed (pigweed; [1]): 0
- Plant response rating, Redroot pigweed (pigweed; [2]): 2
- Plant response rating, Redroot pigweed (pigweed; [3]): 2
- Redroot pigweed plant response rating (0 to 10 scale) (pigweed; Preemergence, Rate 125 g/ha): 3
- Redroot pigweed plant response rating (pigweed; Preemergence, Rate 250 g/ha): 7
- Redroot pigweed plant response rating (pigweed; Preemergence, Rate 500 g/ha): 10
- Redroot pigweed plant response rating (pigweed; Rate 62 g/ha, Postemergence): 0
- Plant response rating, Redroot pigweed (pigweed; [4]): 5
- Plant response rating, Rape (rape; [1]): 0
- Plant response rating, Rape (rape; [2]): 0
- Plant response rating, Rape (rape; [3]): 0
- Rape plant response rating (0 to 10 scale) (rape; Preemergence, Rate 125 g/ha): 1
- Rape plant response rating (rape; Preemergence, Rate 250 g/ha): 3
- Rape plant response rating (rape; Preemergence, Rate 500 g/ha): 5
- Rape plant response rating (rape; Rate 62 g/ha, Postemergence): 0
- Plant response rating, Rape (rape; [4]): 2
- Plant response rating, Soybean (soybean; [1]): 5
- Plant response rating, Soybean (soybean; [2]): 6
- Plant response rating, Soybean (soybean; [3]): 0
- Soybean plant response rating (0 to 10 scale) (soybean; Preemergence, Rate 125 g/ha): 0
- Soybean plant response rating (soybean; Preemergence, Rate 250 g/ha): 0
- Soybean plant response rating (soybean; Preemergence, Rate 500 g/ha): 0
- Soybean plant response rating (soybean; Rate 62 g/ha, Postemergence): 4
- Plant response rating, Soybean (soybean; [4]): 7
- Plant response rating, Sugarbeets (sugar beet; [1]): 1
- Plant response rating, Sugarbeets (sugar beet; [2]): 3
- Plant response rating, Sugarbeets (sugar beet; [3]): 0
- Sugarbeets plant response rating (0 to 10 scale) (sugar beet; Preemergence, Rate 125 g/ha): 4
- Sugarbeets plant response rating (sugar beet; Preemergence, Rate 250 g/ha): 7
- Sugarbeets plant response rating (sugar beet; Preemergence, Rate 500 g/ha): 8
- Sugarbeets plant response rating (sugar beet; Rate 62 g/ha, Postemergence): 0
- Plant response rating, Sugarbeets (sugar beet; [4]): 3
- Plant response rating, Velvetleaf (velvetleaf; [1]): 0
- Plant response rating, Velvetleaf (velvetleaf; [2]): 3
- Plant response rating, Velvetleaf (velvetleaf; [3]): 1
- Velvetleaf plant response rating (0 to 10 scale) (velvetleaf; Preemergence, Rate 125 g/ha): 5
- Velvetleaf plant response rating (velvetleaf; Preemergence, Rate 250 g/ha): 6
- Velvetleaf plant response rating (velvetleaf; Preemergence, Rate 500 g/ha): 7
- Velvetleaf plant response rating (velvetleaf; Rate 62 g/ha, Postemergence): 0
- Plant response rating, Velvetleaf (velvetleaf; [4]): 6
- Plant response rating, Wheat (wheat; [1]): 4
- Plant response rating, Wheat (wheat; [2]): 5
- Plant response rating, Wheat (wheat; [3]): 3
- Wheat plant response rating (0 to 10 scale) (wheat; Preemergence, Rate 125 g/ha): 5
- Wheat plant response rating (wheat; Preemergence, Rate 250 g/ha): 6
- Wheat plant response rating (wheat; Preemergence, Rate 500 g/ha): 7
- Wheat plant response rating (wheat; Rate 62 g/ha, Postemergence): 0
- Plant response rating, Wheat (wheat; [4]): 6
- Plant response rating, Wild oats (wild oat; [1]): 0
- Plant response rating, Wild oats (wild oat; [2]): 1
- Plant response rating, Wild oats (wild oat; [3]): 5
- Wild oats plant response rating (0 to 10 scale) (wild oat; Preemergence, Rate 125 g/ha): 9
- Wild oats plant response rating (wild oat; Preemergence, Rate 250 g/ha): 10
- Wild oats plant response rating (wild oat; Preemergence, Rate 500 g/ha): 10
- Wild oats plant response rating (wild oat; Rate 62 g/ha, Postemergence): 0
- Plant response rating, Wild oats (wild oat; [4]): 7
- Plant response rating, Nutsedge (purple nutsedge; [1]): 0
- Plant response rating, Nutsedge (purple nutsedge; [2]): 0
- Plant response rating, Nutsedge (purple nutsedge; [3]): 0
- Nutsedge plant response rating (0 to 10 scale) (purple nutsedge; Preemergence, Rate 125 g/ha): 0
- Nutsedge plant response rating (purple nutsedge; Preemergence, Rate 250 g/ha): 0
- Nutsedge plant response rating (purple nutsedge; Preemergence, Rate 500 g/ha): 2
- Nutsedge plant response rating (purple nutsedge; Rate 62 g/ha, Postemergence): 0
- Plant response rating, Nutsedge (purple nutsedge; [4]): 0
